Structures can show the parent of a compound that is named as a salt.
Experiments:
[1] = molecular target: CDK7 (Homo sapiens, UniProt P50613); parameters: key: + is used to indicate the potency of the inhibitor; ++++ > +++ > ++ > +; + is used to indicate the potency of the inhibitor; ++++ > +++ > ++ > +; + is used to indicate the potency of the inhibitor; ++++ > +++ > ++ > +; + is used to indicate the potency of the inhibitor; ++++ > +++ > ++ > +; ◯ refers to compounds with inhibitory effects on the related isoform, but without specific value; conditions: cited from earlier work
[2] = molecular target: CDK1 (Homo sapiens, UniProt P06493); conditions: cited from earlier work
[3] = molecular target: CDK3 (Homo sapiens, UniProt Q00526); conditions: cited from earlier work
[4] = molecular target: CDK4 (Homo sapiens, UniProt P11802); conditions: cited from earlier work
[5] = molecular target: CDK2 (Homo sapiens, UniProt P24941); conditions: cited from earlier work
[6] = molecular target: CDK6 (Homo sapiens, UniProt Q00534); parameters: key to the marks not given beside the values; conditions: cited from earlier work
[7] = tested on: serine phosphorylation of CHI3L1 in U87 cells; test: Co-IP/Immunoblot of CHI3L1 phosphorylation in U87 cells; format: cell-based; conditions: flavopiridol 50 nM unless otherwise indicated, time-dependent and dose-dependent
Experimental: U87 cells that endogenously express all components of chitosome were subjected to Co-IP/Immunoblot assays after Pan-CDK inhibitor flavopiridol treatment. Flavopiridol was used at 50 nM unless otherwise indicated. Hr, hours.

[8] = tested on: ACE2, TMPRSS2, CTSL, and FURIN mRNA in Calu-3 lung epithelial cells; test: RT-PCR of basal and CHI3L1 regulated expression in Calu-3 cells transfected with CHI3L1 cDNA, with flavopiridol; format: cell-based, human; conditions: 24 hours
Experimental: After transfection of the cells with empty vector (pcDNA) or full length CHI3L1 cDNA, the Calu-3 cells were incubated with flavopiridol (25 nM) or its vehicle control for 24 hours. Levels of mRNA encoding ACE2 (top left), TMPRSS2 (top right), CTSL (bottom left), and FURIN (bottom right) were assessed via RT-PCR. *p<0.05; **p<0.01 (Student's t-test).
(§1) Total cellular RNA was obtained using TRIzol reagent (ThermoFisher Scientific) followed by RNA extraction using RNeasy Mini Kit (Qiagen, Germantown, Md.) according to the manufacturer's instructions. mRNA was measured and used for real time (RT)-PCR as described previously.^55,56 The primer sequences used in these studies are summarized in Table 1. Ct values of the test genes were normalized to the internal housekeeping gene β-actin.
The next study assessed whether the inhibition of CHI3L1 phosphorylation wound result in similar effects observed with CHI3L1 inhibitors on the levels of mRNA encoding ACE2 and spike activating proteases (SAPs), namely FURIN, TMPRSS2, and CTSL, in Calu-3 cells (described in Example 1).

[9] = molecular target: CDK9 (Homo sapiens, UniProt P50750); parameters: key: + is used to indicate the potency of the inhibitor; ++++ > +++ > ++ > +; + is used to indicate the potency of the inhibitor; ++++ > +++ > ++ > +; + is used to indicate the potency of the inhibitor; ++++ > +++ > ++ > +; + is used to indicate the potency of the inhibitor; ++++ > +++ > ++ > +; ◯ refers to compounds with inhibitory effects on the related isoform, but without specific value; conditions: cited from earlier work
[10] = molecular target: CDK8 (Homo sapiens, UniProt P49336); parameters: key: + is used to indicate the potency of the inhibitor; ++++ > +++ > ++ > +; + is used to indicate the potency of the inhibitor; ++++ > +++ > ++ > +; + is used to indicate the potency of the inhibitor; ++++ > +++ > ++ > +; + is used to indicate the potency of the inhibitor; ++++ > +++ > ++ > +; ◯ refers to compounds with inhibitory effects on the related isoform, but without specific value; conditions: cited from earlier work
[11] = tested on: ACE2, TMPRSS2, and CTSL mRNA in A549 cells; test: qRT-PCR of mRNA levels in A549 cells incubated with rhCHI3L1; format: cell-based, human; conditions: 24 hr
Experimental: as §1
In the first study, A549 cells were incubated with rhCHI3L1 from a commercial source (R&D Inc.) and rhCHI3L1 generated at Brown University (Brown). The cells were incubated for 24 hr with stimulation of rhCHI3L1 (500 ng/mL) at 37° C. mRNA was then extracted and the levels of mRNA for ACE2 and CTSL were evaluated by real time qRT-PCR and compared to vehicle controls. Levels were expressed in relationship to GAPDH controls.
In the next study, A549 cells were incubated with 0, 250 ng/mL, or 500 ng/mL of rhCHI3L1 for 24 hr with stimulation of rhCHI3L1 at 37° C. mRNA was then extracted and the levels of mRNA encoding ACE2, TMPRSS2, and CTSL were assessed via qRT-PCR.

[12] = tested on: spike protein (S)-containing pseudovirus (D614 and G614 variants); format: cell-based; conditions: Calu-3 cells, rCHI3L1 24 hours before pseudovirus
[13] = tested on: ACE2, TMPRSS2, and CTSL mRNA in normal human small airway epithelial cells (HSAEC); test: qRT-PCR of mRNA levels in HSAEC incubated with rhCHI3L1; format: cell-based; conditions: rhCHI3L1 500 ng/mL, 24 hours
Experimental: as §1
In the present study, normal HSAEC were incubated with 0, 100 ng/mL, or 500 ng/mL of rhCHI3L1 for 24 hours at 37° C. The levels of mRNA encoding ACE2, TMPRSS2, and CTSL were assessed via qRT-PCR and expressed in relationship to GAPDH controls.

[14] = tested on: ACE2, FURIN, TMPRSS2, and CTSL mRNA in Calu-3 lung epithelial cells; test: RT-PCR of basal and rhCHI3L1 regulated expression in Calu-3 cells with FRG or KSM; format: cell-based, human; conditions: Calu-3 cells, rhCHI3L1 250 ng/mL, 24 hours
Experimental: Calu-3 cells were incubated with vehicle or rhCHI3L1 for 24 hours in the presence of KSM (250 ng/mL) or its vehicle control (PBS). Levels of mRNA encoding ACE2 (top left), FURIN (top right), TMPRSS2 (bottom left), and CTSL (bottom right) were assessed via RT-PCR. KSM diminished the levels of basal ACE2 expression and potently ameliorated the ability of rhCHI3L1 to stimulate ACE2 mRNA accumulation.
as §1
Calu-3 cells were incubated with vehicle or 250 ng/mL rhCHI3L1 for 24 hours in the presence of 250 ng/mL FRG or its isotype control (isotype) at 37° C. Levels of mRNA encoding ACE2, FURIN, TMPRSS2, and CTSL were assessed via RT-PCR.
Kasugamycin (KSM) is an inhibitor of CHI3L1 and chitinase 1. The present study assessed the effects of KSM on the levels of mRNA encoding ACE2, FURIN, TMPRSS2, and CTSL in Calu-3 cells.

[15] = Calu-3 cells, pcDNA or CHI3L1 cDNA, flavopiridol 25 nM

CDK7, sequence (P51946 whole entry, canonical isoform): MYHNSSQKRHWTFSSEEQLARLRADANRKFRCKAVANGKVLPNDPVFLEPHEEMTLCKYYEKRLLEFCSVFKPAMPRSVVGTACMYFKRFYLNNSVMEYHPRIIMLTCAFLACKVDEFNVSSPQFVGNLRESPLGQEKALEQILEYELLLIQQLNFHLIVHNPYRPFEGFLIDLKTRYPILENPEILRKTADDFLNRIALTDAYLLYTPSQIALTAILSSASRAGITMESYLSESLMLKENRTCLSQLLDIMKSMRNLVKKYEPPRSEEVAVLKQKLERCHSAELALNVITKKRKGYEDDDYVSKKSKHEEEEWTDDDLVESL
CDK7, sequence (P50613 whole entry, canonical isoform): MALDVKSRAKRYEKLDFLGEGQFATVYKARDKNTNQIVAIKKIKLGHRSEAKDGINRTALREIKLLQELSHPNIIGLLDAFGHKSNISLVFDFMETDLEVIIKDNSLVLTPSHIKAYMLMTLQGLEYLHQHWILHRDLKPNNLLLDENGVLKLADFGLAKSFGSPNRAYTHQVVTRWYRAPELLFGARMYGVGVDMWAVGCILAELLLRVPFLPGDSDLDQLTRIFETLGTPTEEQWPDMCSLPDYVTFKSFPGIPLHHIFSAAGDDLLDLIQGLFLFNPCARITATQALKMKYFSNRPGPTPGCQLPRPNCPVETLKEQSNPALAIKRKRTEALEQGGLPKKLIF
CDK7, sequence (P51948 whole entry, further chain, canonical isoform): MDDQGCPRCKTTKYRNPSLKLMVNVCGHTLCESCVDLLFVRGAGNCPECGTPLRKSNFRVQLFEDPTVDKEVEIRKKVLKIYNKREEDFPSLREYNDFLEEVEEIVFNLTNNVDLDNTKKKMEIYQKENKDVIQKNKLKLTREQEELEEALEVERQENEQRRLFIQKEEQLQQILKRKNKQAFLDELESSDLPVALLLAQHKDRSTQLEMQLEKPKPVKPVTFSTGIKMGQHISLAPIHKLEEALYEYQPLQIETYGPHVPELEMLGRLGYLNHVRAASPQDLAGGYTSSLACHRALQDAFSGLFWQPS
CDK4, sequence (P11802 whole entry, species assumed): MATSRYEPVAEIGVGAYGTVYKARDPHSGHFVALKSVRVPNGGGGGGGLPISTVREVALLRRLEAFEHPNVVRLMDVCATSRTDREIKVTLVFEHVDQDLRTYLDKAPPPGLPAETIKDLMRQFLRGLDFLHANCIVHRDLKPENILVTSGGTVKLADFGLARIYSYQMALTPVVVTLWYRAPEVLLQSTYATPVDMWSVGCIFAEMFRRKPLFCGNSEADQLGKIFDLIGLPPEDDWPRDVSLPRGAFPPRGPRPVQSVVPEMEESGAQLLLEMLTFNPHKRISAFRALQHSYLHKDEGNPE
CDK4, sequence (P24385 whole entry partner, species assumed): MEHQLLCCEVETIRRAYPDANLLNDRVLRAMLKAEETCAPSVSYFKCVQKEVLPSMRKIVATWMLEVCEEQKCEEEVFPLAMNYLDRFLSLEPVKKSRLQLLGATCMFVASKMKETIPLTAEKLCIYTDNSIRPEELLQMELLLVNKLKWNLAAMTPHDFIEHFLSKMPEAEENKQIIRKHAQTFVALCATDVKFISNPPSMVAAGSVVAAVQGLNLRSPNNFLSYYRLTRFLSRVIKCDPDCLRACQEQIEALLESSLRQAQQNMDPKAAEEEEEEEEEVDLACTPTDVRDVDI
CDK6, sequence (Q00534 whole entry): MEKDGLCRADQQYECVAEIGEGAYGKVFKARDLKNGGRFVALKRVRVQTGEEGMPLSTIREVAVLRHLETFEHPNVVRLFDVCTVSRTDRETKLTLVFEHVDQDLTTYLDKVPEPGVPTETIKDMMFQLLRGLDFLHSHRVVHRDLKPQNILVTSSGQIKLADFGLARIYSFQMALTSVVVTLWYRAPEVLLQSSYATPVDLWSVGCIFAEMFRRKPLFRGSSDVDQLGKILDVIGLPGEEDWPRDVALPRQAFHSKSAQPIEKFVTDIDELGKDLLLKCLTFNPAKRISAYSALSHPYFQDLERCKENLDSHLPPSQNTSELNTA
CDK1, sequence (P06493 whole entry, species assumed): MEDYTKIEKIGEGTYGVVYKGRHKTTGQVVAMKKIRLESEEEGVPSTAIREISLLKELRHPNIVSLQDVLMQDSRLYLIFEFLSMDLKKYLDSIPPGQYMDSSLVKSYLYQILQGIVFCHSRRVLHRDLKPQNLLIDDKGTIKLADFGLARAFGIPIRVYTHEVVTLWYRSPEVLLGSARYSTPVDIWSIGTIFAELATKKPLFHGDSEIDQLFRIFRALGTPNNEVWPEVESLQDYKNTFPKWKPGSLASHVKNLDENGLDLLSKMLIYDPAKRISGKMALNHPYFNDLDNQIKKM
CDK1, sequence (P14635 whole entry partner, species assumed): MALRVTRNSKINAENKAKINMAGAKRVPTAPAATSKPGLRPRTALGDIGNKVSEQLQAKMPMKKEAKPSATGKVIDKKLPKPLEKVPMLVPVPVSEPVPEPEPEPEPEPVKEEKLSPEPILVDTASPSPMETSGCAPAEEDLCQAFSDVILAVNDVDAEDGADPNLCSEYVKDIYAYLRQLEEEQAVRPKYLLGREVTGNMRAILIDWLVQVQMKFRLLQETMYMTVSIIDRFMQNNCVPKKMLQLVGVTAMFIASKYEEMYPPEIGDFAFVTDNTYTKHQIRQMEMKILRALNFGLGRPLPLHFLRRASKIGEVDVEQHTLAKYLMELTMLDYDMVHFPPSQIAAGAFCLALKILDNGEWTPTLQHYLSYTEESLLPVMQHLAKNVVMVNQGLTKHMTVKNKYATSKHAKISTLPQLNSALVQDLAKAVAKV
CDK3, sequence (Q00526 whole entry): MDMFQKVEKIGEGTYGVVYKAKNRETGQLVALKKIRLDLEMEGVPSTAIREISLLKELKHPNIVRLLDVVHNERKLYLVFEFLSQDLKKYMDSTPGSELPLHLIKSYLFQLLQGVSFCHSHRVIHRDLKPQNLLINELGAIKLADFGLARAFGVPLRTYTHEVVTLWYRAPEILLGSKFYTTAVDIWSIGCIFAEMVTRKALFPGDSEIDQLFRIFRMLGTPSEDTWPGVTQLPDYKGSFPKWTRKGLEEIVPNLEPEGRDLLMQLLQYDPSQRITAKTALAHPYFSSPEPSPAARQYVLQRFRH
CDK3, sequence (P24864 whole entry, further chain): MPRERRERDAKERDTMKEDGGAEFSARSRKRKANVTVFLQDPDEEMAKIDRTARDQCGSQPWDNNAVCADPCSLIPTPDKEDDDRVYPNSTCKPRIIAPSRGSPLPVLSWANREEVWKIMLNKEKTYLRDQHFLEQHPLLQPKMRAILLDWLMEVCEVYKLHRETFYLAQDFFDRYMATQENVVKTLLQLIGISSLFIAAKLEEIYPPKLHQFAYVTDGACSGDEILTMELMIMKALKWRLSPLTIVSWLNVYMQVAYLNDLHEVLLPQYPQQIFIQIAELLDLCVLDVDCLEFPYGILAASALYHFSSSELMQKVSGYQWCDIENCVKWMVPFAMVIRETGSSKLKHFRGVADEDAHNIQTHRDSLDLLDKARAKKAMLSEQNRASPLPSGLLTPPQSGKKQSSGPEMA
CDK9, sequence (O60563 whole entry, canonical isoform): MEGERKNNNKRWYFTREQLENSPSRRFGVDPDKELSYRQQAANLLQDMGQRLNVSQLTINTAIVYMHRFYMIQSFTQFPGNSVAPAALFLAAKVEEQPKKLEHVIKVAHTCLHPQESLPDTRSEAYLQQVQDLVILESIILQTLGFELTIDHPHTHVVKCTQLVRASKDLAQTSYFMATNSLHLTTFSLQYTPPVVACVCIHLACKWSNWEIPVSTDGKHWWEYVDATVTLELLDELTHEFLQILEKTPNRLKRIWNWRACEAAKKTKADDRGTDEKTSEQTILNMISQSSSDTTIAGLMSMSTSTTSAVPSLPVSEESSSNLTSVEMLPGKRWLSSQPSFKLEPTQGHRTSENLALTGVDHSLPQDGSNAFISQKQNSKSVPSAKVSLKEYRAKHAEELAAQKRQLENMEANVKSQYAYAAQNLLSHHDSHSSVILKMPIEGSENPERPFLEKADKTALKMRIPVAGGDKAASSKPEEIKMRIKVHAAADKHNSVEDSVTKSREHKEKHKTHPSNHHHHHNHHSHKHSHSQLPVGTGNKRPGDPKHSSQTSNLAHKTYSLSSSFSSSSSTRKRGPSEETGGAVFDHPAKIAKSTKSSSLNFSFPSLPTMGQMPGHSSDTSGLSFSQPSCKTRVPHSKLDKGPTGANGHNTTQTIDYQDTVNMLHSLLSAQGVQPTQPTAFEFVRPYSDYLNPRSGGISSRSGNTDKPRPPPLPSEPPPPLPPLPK
CDK9, sequence (P50750 whole entry, canonical isoform): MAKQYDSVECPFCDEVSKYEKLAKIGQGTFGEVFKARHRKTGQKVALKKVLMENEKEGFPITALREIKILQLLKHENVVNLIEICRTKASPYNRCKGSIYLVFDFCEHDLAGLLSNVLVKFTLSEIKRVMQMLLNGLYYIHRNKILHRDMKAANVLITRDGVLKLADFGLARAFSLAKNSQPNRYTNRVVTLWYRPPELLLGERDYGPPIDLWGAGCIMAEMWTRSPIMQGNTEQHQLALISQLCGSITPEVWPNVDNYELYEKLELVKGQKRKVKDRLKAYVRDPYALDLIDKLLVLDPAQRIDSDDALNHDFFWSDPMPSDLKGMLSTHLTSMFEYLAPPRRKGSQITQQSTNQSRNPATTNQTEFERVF

Molecule: CN1CC[C@H](c2c(O)cc(O)c3c(=O)cc(-c4ccccc4Cl)oc23)[C@H](O)C1 [Flavopiridol HCl, Flavopiridol Hydrochloride]
- Inhibitory potency CDK7 [1]: +
- Inhibitory potency CDK1 [2]: +++
- Inhibitory potency CDK3 [3]: +
- Inhibitory potency CDK4 [4]: +++
- Inhibitory potency CDK2 [5]: +++
- Inhibitory potency CDK6 [6]: +++

Molecule: CN1CC[C@H](c2c(O)cc(O)c3c(=O)cc(-c4ccccc4Cl)oc23)[C@H](O)C1 [Flavopiridol]
- Inhibitory potency CDK7 [1]: +
- Inhibitory potency CDK1 [2]: +++
- serine phosphorylation of CHI3L1 [7]: blocked
- Inhibitory potency CDK4 [4]: +++
- Inhibitory potency CDK2 [5]: +++
- ability of CHI3L1 to stimulate ACE2 mRNA accumulation ([8]; Calu-3 cells transfected with full length CHI3L1 cDNA, flavopiridol 25 nM): potently inhibited
- levels of basal ACE2 expression ([8]; Calu-3 cells, empty vector (pcDNA), flavopiridol 25 nM vs vehicle): diminished
- basal and CHI3L1-stimulated expression of CTSL [8, 15]: potently decreased
- basal and CHI3L1-stimulated expression of FURIN [8, 15]: potently decreased
- basal and CHI3L1-stimulated expression of TMPRSS2 [8, 15]: potently decreased
- Inhibitory potency CDK6 [6]: ++

Molecule: CC(C)c1c2cc(-c3ccnc(NC4CCC(NC5CCOCC5)CC4)n3)ccc2nn1C (stereo not drawn) [LY2857785]
- Inhibitory potency CDK7 [1]: +
- Inhibitory potency CDK9 [9]: +++
- Inhibitory potency CDK8 [10]: +++

Molecule: rhCHI3L1: recombinant human CHI3L1 from a commercial source (R&D Inc.) or generated at Brown University
- levels of mRNA encoding ACE2 ([11]; rhCHI3L1 0, 250 or 500 ng/mL): significantly upregulated
- levels of mRNA encoding CTSL ([11]; rhCHI3L1 0, 250 or 500 ng/mL): significantly upregulated
- levels of mRNA encoding TMPRSS2 ([11]; rhCHI3L1 0, 250 or 500 ng/mL): significantly upregulated
- levels of mRNA encoding ACE2 ([11]; rhCHI3L1 500 ng/mL, vs vehicle): significantly upregulated
- levels of mRNA encoding cathepsin L (CTSL) ([11]; rhCHI3L1 500 ng/mL, vs vehicle): significantly upregulated
- cellular integration of S proteins (GFP expression) [12]: stimulated
- levels of mRNA encoding ACE2 [13]: significantly upregulated
- levels of mRNA encoding CTSL [13]: significantly upregulated
- levels of mRNA encoding TMPRSS2 [13]: significantly upregulated
- levels of mRNA encoding ACE2 [14]: significantly upregulated
- levels of mRNA encoding CTSL [14]: significantly upregulated
- levels of mRNA encoding FURIN [14]: significantly upregulated
- levels of mRNA encoding TMPRSS2 [14]: significantly upregulated
